Tested on: rat adrenal chromaffin cells (native α3β4* / α3β2β4 nAChRs)

CC[C@H](C)[C@@H]1NC(=O)[C@@H]2CCCN2C(=O)[C@H](CO)NC(=O)[C@H](CCSC)NC(=O)[C@H](C)NC(=O)[C@H](CO)NC(=O)[C@@H]2CSSC[C@H](NC(=O)CN)C(=O)N[C@@H](CSSC[C@@H](C(N)=O)NC1=O)C(=O)N[C@@H](CO)C(=O)N[C@@H](Cc1c[nH]cn1)C(=O)N1CCC[C@H]1C(=O)N[C@@H](C(C)C)C(=O)N2 [TxID]
Hill slope: −1.1
inhibition of the ACh-evoked currents: ~ 97%
IC50 (36 h): 7 nM
ACh-evoked current amplitude in the presence of TxID (SD): −50 ± 24 pA
ACh-evoked current amplitude in the presence of TxID alone (SD): −45 ± 26 pA
ACh-evoked currents in the presence of TxID, % of controls (SD): 3 ± 1%
